The values that follow come from patent US20250204555A1, “FEED AND METHODS FOR CONTROLLING INTESTINAL TRACT PARASITIC WORM INFECTIONS IN MAMMALS” (In the Bowl Animal Health, priority 2022, published 2025).

Holding throughout (assay type): in vivo
One assay deals with Ancylostoma caninum. The experiment in a line: Efficacy of monepantel per os to dogs against Ancylostoma caninum (fecal egg counts). The following applies: oral liquid formulation, 0.25 or 0.5 mg/kg daily Days 0-22, ~300 A. caninum larvae on Day 0, expected within approximately 2 weeks. The text has this:
Efficacy of Monepantel Administered per os, i.e. by Mouth, to Dogs for the Treatment and Control of Ancylostoma caninum. Methods: A pool of 12 dogs are to be preliminarily examined to ensure suitability for the example. Dogs must be within normal weight ranges for breed, in good health with no known history of serious disease and neither pregnant nor lactating. Between Day-7 and Day-3, a fecal examination may be performed to confirm the absence of pre-existing infection by any nematode species. Dogs exposed to an anthelmintic within 30 days prior to Day-7 are to be excluded. Dogs are to be weighed on Day-2 and randomly assigned to 1 of 3 groups by weight (1 control group and 2 treatment groups). Dogs may be pair housed, if compatible, or individually housed until allocation to treatment groups on Day 0. Thereafter, the dogs are to be housed individually. Dogs are to be fed a standard commercially available dog food at the recommended rates and should be allowed access to potable water ad libitum. Each dog in a treatment group (test groups 2-3) is to receive by mouth a liquid formulation of monepantel. The dosage is to be administered to the dogs on each of days 0-22 according to test groups, see TABLE 3. [table] Dogs in the control group are not to receive any anthelmintics or any other worm control treatment. Dogs are to be fasted overnight. […]

Assay [1] deals with Toxocara canis. The experiment in a line: Efficacy of monepantel per os to dogs against Toxocara canis (fecal egg counts). The following applies: oral liquid formulation, 0.125, 0.25 or 0.5 mg/kg daily Days 0-52, ~250 T. canis eggs on Day 0, all treatment groups, expected by the end of the study period. The text has this: Efficacy of Monepantel Administered per os, i.e. by Mouth, to Dogs for the Treatment and Control of Toxocara canis.
Methods: A pool of dogs are to be preliminarily examined to ensure suitability for the example. Dogs must be within normal weight ranges for breed, in good health with no known history of serious disease and neither pregnant nor lactating. On Day-6, a fecal examination may be performed to confirm the absence of pre-existing infection by any nematode species. Dogs exposed to an anthelmintic within 30 days prior to Day-7 are to be excluded.
16 eligible dogs are to be weighed on Day-1 and randomly assigned to 1 of 4 groups by weight (1 control group and 3 treatment groups).
Dogs are to be housed indoors to help prevent naturally occurring parasitic worm infections. Dogs may be pair housed, if compatible, or individually housed until allocation to treatment groups on Day 0. Thereafter, the dogs are to be housed individually. Dogs are to be fed a standard commercially available dog food at the recommended rates and should be allowed access to potable water ad libitum.
Each dog in a treatment group (test groups 2-4) is to receive by mouth a liquid formulation of monepantel. The dosage is to be administered to the dogs on each of days 0-52 according to test groups, see TABLE 4.
Dogs in the control group are not to receive any anthelmintics or any other worm control treatment. […]

The test system of assay [2] is Toxocara canis. The experiment in a line: Efficacy of fenbendazole per os to dogs against Toxocara canis infections (fecal egg counts). The following applies: oral liquid formulation, 0.5, 1.0 or 1.5 mg/kg daily Days 0-52 (at least treatment groups 2-4), ~250 T. canis eggs on Day 0, expected by the end of the study period. The text has this:
Efficacy of Fenbendazole Administered per os, i.e. by Mouth, to Dogs for the Treatment and Control of Toxocara canis Infections. Methods: A pool of dogs are to be preliminarily examined to ensure suitability for the example. Dogs must be within normal weight ranges for breed, in good health with no known history of serious disease and neither pregnant nor lactating. Between Day-6 and Day-3, a fecal examination may be performed to confirm the absence of pre-existing infection by any nematode species. Dogs exposed to an anthelmintic within 30 days prior to Day-7 are to be excluded. 20 eligible dogs are to be weighed on Day-2 or Day-1 and randomly assigned to 1 of 5 groups by weight (1 control group and 4 treatment groups). Dogs are to be housed indoors to help prevent naturally occurring parasitic worm infections. Dogs may be pair housed, if compatible, or individually housed until allocation to treatment groups on Day 0. Thereafter, the dogs are to be housed individually. Dogs are to be fed a standard commercially available dog food at the recommended rates and should be allowed access to potable water ad libitum. Each dog in a treatment group (test groups 2-5) is to receive by mouth a liquid formulation of fenbendazole. The dosage is to be administered to the dogs on each of days 0-52 according to test groups, see TABLE 5. [table] […]

Take `C[C@](C#N)(COc1cc(C#N)ccc1C(F)(F)F)NC(=O)c1ccc(SC(F)(F)F)cc1` [Monepantel, N-[(2S)-2-cyano-1-[5-cyano-2-(trifluoromethyl)phenoxy]propan-2-yl]-4-(trifluoromethylsulfanyl)benzamide]: the “Percent reduction in fecal egg counts” value with Ancylostoma caninum came out at 100%. Also, the “efficacy (fecal egg count reduction)” value with Toxocara canis [1] is reported as 100%.

Turning to `COC(=O)Nc1nc2ccc(Sc3ccccc3)cc2[nH]1` [Fenbendazole, methyl N-(6-phenylsulfanyl-1H-benzimidazol-2-yl) carbamate], the “efficacy (fecal egg count reduction)” value with Toxocara canis [2] is 100%.
